The record followed here is patent US8067189B2, “Methods for determining sensitivity to vascular endothelial growth factor receptor-2 modulators by measuring the level of collagen type IV” (Bristol-Myers Squibb Company, priority 2005, dated 2011).

In experiment [1] the test system is VE-Cadherin. Kind of experiment: ELISA of blood samples from tumor bearing mice. It counts as in vivo, mouse. The note with it: 100 mg/kg 1 qd×14 days. The protocol:
(§1) Tumors were propagated in nude mice as subcutaneous (sc) transplants using L2987 and HCT-116 cancer cell lines. Tumor passage occurred approximately every two to four weeks. Tumors were then allowed to grow to the pre-determined size window (100-200 mm^3, tumors outside the range were excluded) and animals were evenly distributed to various treatment and control groups. Animals were treated with the example VEGFR-2 inhibitor (100 mg/kg 1 qd×14 days). Treated animals were checked daily for treatment related toxicity/mortality. Each group of animals was weighed before the initiation of treatment (Wt1) and then again following the last treatment dose (Wt2). […] Tumor response was determined by measurement of tumors with a caliper twice a week, until the tumors reached a predetermined target size. […]
(§2) An ELISA method for the detection and measurement of Collagen Type IV and VE-Cadherin on human plasma or any biological sample where the proteins must be detected and measured is described. […] The reaction was terminated by addition of acid and absorbance was measured at 450 nm. A standard curve was prepared from collagen type IV standard dilutions and collagen type IV samples concentration determined. […] The reaction was terminated by addition of acid and absorbance was measured at 450 nm. A standard curve was prepared from VE-cadherin standard dilutions and VE-cadherin samples concentration determined. […]
A general note: ELISA stands for enzyme-linked immunosorbent assay.

Experiment [2] deals with Collagen type IV. Kind of experiment: ELISA of blood samples from tumor bearing mice. It counts as in vivo, mouse. The following applies: 100 mg/kg 1 qd×14 days. As to the method: as §1, §2

Turning to `Cc1cc2c(F)c(Oc3ncnn4cc(OC[C@@H](C)OC(=O)[C@H](C)N)c(C)c34)ccc2[nH]1` [example VEGFR-2 inhibitor, [(1R),2S]-2-Aminopropionic acid 2-[4-(4-fluoro-2-methyl-1H-indol-5-yloxy)-5-methylpyrrolo[2,1-f][1,2,4]triazin-6-yloxy]-1-methylethyl ester], the “amount of VE-Cadherin protein detected in the blood following treatment” value in experiment [1] was “decreased to levels observed in the healthy mice bearing no tumors”. In addition, in experiment [2], the “amount of Collagen type IV protein detected in the blood following treatment” value is “decreased to levels observed in the healthy mice bearing no tumors”.
